Assay results: patent US6313179A, “Treatment of hyperproliferative skin disorders with C18 to C20 aliphatic alcohols” (Avanir Pharmaceuticals, priority 1998, dated 2001)
“Also recorded” adds a separate entry of the source. Like-named read-outs stand apart in the source and are kept apart here.

Tests used:
[1] = system: Human keloid fibroblasts; test: Proliferation study, keloid cells (Example 3); assay type: cell-based; details: 3 mM
Experimental: (§1) Human keloid fibroblasts, normal control skin fibroblasts and Vero cells were obtained from ATCC. n-Docosanol (30 mM) was suspended in Pluronic F-68 (1.2 mM) as described previously (Katz et al., ibid). A vehicle control was prepared using the same procedure except for the omission of n-docosanol. Radiolabeled n-[1-^14 C] docosanol suspension was prepared as described by Katz et al. (ibid.). Cells were resuspended in 1.2×10^6 cells/ml in DMEM supplemented with 10% fetal calf serum, sodium pyruvate, L-glutamine and penicillin-streptomycin. Cell suspension (0.5 ml) was added to each 35 mm well containing 1.3 ml media, followed by addition of 0.2 ml radiolabeled n-docosanol suspension (final n-docosanol concentration=3 mM). After 24 hours at 37° C. in humidified 10% CO2, the suspension was removed, wells were washed extensively with saline and cells were solubilized for scintillation counting by incubation with 0.5 ml trypsin for 15 min at 37° C. Solubilized cells were counted in a Beckman LS6000 scintillation counter. Samples were corrected for nonspecific binding to plates by subtracting values obtained in control wells lacking cells. To determine cell number, duplicate plates were treated with non-radiolabeled n-docosanol or control suspension at the same concentration or were left untreated. The number of viable cells was determined by trypan blue staining.

[2] = system: keloid scarring; test: Treatment of keloid scar formation with n-docosanol cream, case report (Example 4); assay type: in vivo, Human
Excerpt: The patient presented with a one year history of progressive bilateral facial keloid scarring. The precise cause of injury is unknown, but appears to have been initiated as a result of work-relatedexposure to some aerosolized irritant at a high rise building construction site. During the time of exposure, the patient was working in an area in which noxious fumes were known to exist, and they were wearing a filtration face mask for protection against inhalation exposure. Since the resulting wounds occurred in a pattern which appeared to outline the edges of the protective face mask, the injury may reflect some type of chemical burn resulting from concentration of aerosolized irritants with perspiration at the edge of the face mask.
During the ensuing year after onset of this process, the patient was seen on several occasions in the dermatology division of a major local hospital and attempts were made to arrest the process by intradermal steroid injections at the affected sites. This treatment approach was ineffective. When the patient was first seen by the inventors, they had extensive and disfiguring bilateral scars on the face and a large ulcerated lesion at the lower end of the process on the right side of the face. There was keloid scarring on both the right and left sides of the face manifested as typical "ropey and cord-like" tissue deposition and depigmentation. The right side of the face was noticeably swollen presumably as a result of the active ulceration process at the lower end of the lesions. The patient complained of pain along both areas of scarring, particularly at the more distal ends of the lesions. They admitted to social withdrawal as a result of embarrassment about their appearance and extreme frustration about the apparent futility of obtaining any help to arrest or reverse the process.
After thoroughly explaining the experimental aspects of the therapeutic regimen, the patient volunteered to enter a study in which cream containing either 15% or 10% n-docosanol as active ingredient was to be applied to the affected areas. These topical cream formulations are described in U.S. Pat. No. 5,534,554, the entire contents of which are incorporated by reference. Initially, applications of cream containing 15% n-docosanol were made three times daily. This cream formulation contained, in addition to 15% n-docosanol, […], 5.0% sucrose cocoate, 8.0% mineral oil NF, 5.0% propylene glycol USP, 2-ethyl-1,3-hexanediol and 58.3% purified water (all weight percent). After one month on this regimen, the patient was changed to cream containing 10% n-docosanol and the application frequency was reduced to two times daily, after showering in the morning and just before bed in the evening. This cream composition contained, in addition to 10% n-docosanol,5.0% sucrose stearates, 8.0% mineral oil NF, 5.0% propylene glycol USP, 2.7% benzyl alcohol NF and 69.3% purified water.

[3] = system: Human keloid fibroblasts; test: Antiproliferative activity of n-docosanol in keloid cells (Example 1, viable cell count); assay type: cell-based; details: 15 mM; for inhibition of keloid cell growth in vitro (in words): cultured keloid / hypertrophic fibroblasts; for activity at 15000 µM / cells/well: Table 1; for activity at 15000 µM: compared to cells incubated with no addition, read-out: % control
Experimental: Human keloid fibroblasts were obtained from the American Type Culture Collection (Rockville, Md.) (CRL 1762). n-Docosanol (300 mM) was suspended in the nonionic surfactant Pluronic F-68 (12 mM) as described previously (Katz et al., Proc. Natl. Acad. Sci. U.S.A., 88:10825-10829, 1991, hereby incorporated by reference). A vehicle control was prepared using the same procedure except n-docosanol was omitted. Keloid cells (2.7×10^4per well) were added to 16 mm wells containing DMEM supplemented with 10% fetal calf serum (FCS), sodium pyruvate, L-glutamine and penicillin/streptomycin. n-Docosanol (15 mM) or the corresponding Pluronic F-68 control (0.6 mM) was added (total volume=2.0 ml). Cells were harvested after incubation for 72 and 168 hours at 37° C. in a humidified 10% CO2 incubator. The number of viable cells was determined by trypan blue staining.

[4] = system: Vero (normal African green monkey kidney; ATCC CCL 81) cells; test: Proliferation study, Vero cells (Example 3); assay type: cell-based; details: 3 mM
Experimental: The following experiment examined the effect of n-docosanol on cell proliferation and quantitation of n-[1-^14 C]docosanol binding to keloid, Vero (normal African green monkey kidney; ATCC CCL 81) and normal skin fibroblast (ATCC CRL 1900) cells.
as §1

[5] = 15% cream three times daily, within 48 hours
[6] = 15% cream, by the end of the second week, patient perception

Q: How did the inhibition at 3000 µM ([1]; Homo sapiens, Fibroblast, 24 h, one day incubation, read-out: reduction of number of keloid cells) turn out when `CCCCCCCCCCCCCCCCCCCCCCO` [n-docosanol] was run?
A: 57%

Q: And the activity at 3000 µM ([1]; Homo sapiens, Fibroblast, Table 4, Keloid, 24 hours, compared to cells incubated with no addition, read-out: % ctrl)?
A: 43%

Q: What about the No. cells ([1]; Table 4, Keloid, 24 hours) of the same compound?
A: 1.6 × 10^5 cells

Q: And the “extent of elevation of the keloid scarring” value ([2]; 15% cream one month, then 10% cream twice daily, three months)?
A: clear reduction in the extent of elevation of the keloid scarring

Q: What about the “pain around the lesions” value ([2]; 15% cream three times daily, almost immediately after onset of therapy) of the same compound?
A: significant diminution in pain

Q: What about the “granulation within the ulcerated lesion” value [2, 5] of the same compound?
A: onset of granulation

Q: What about the “swelling on the right side of the face” value [2, 5] of the same compound?
A: significant reduction in swelling

Q: What about the “suppleness of the overlying dermis” value [2, 6] of the same compound?
A: greater suppleness of the overlying dermis

Q: And the “tightness and thickness of the keloids” value [2, 6]?
A: diminution in tightness and thickness of the keloids

Q: And the “pigmentation in the affected areas” value ([2]; 15% then 10% cream, one year)?
A: almost complete return to normal pigmentation

Q: And the “ropey and cord-like elevations” value ([2]; 15% then 10% cream, one year)?
A: a flattening of the previously ropey and cord-like elevations

Q: What about the scar tissue ([2]; 15% then 10% cream, one year) of the same compound?
A: significant reduction of scar tissue

Q: What about the skin pigmentation ([2]; 15% then 10% cream, three months) of the same compound?
A: considerable improvement in skin pigmentation

Q: And the “scar defect at the site of the healed ulcerated lesion” value ([2]; 15% then 10% cream, three months, compared to right temple line scar)?
A: much smaller scar defect

Q: What about the adverse reactions ([2]; during the course of treatment) of the same compound?
A: no adverse reactions

Q: What about the “keloid formation in a patient (in words)” value ([2]; patient for whom other treatments had not been successful) of the same compound?
A: significantly reduced hyperproliferative keloid formation

Q: And the “inhibition of keloid cell growth in vitro (in words)” value [3]?
A: favored by low cell densities and longer incubation times and is concentration-dependent; also recorded: dramatic inhibition of keloid cell growth

Q: And the “inhibition of keloid cell growth in vitro (in words)” value ([3]; listed as n-Docosanol)?
A: exhibits antiproliferative activity against cultured hypertrophic fibroblasts

Q: What about the inhibition at 15000 µM ([3]; Homo sapiens, Fibroblast, 168 hours, compared to no addition, read-out: inhibition of cell growth) of the same compound?
A: 76%

Q: What about the activity at 15000 µM ([3]; Homo sapiens, Fibroblast, 72 hours) of the same compound?
A: 103%

Q: What about the activity at 15000 µM ([3]; Homo sapiens, Fibroblast, 168 hours) of the same compound?
A: 24%

Q: And the cells/well ([3]; 72 hours)?
A: 3.3 × 10^4 cells/well

Q: What about the cells/well ([3]; 168 hours) of the same compound?
A: 1.0 × 10^4 cells/well

Q: What about the “number of Vero cells (in words)” value ([4]; one day incubation) of the same compound?
A: not decreased

Q: What about the activity at 3000 µM ([4]; Chlorocebus sabaeus, Table 4, Vero, 24 hours, compared to cells incubated with no addition, read-out: % ctrl) of the same compound?
A: 151%

Q: What about the “No. cells” value ([4]; Table 4, Vero, 24 hours) of the same compound?
A: 5.9 × 10^5 cells
